Source: patent US6265402A, “Use of 2-phenylmorpholin-5-one derivatives” (Nikken Chemicals Co., Ltd., priority 1996, dated 2001)
pIC50: −log10 of the molar value.

Key:
[1] = test system: Type IV PDE; experiment: Type IV PDE inhibitory activity; type: biochemical; settings: Type IV PDE partially purified from rat neutrophils; 3H-cAMP substrate, 30° C., 30 minutes
Procedure: Type I, III, IV, and V PDE isozymes were prepared to study the PDE inhibitory activities of and selectivities with the compound of the invention [Trends Pharmacol Sci., 12, 19-27 (1992)]. Type I PDE was purchased from Sigma Corp. Type III, IV, and V PDE isozymes were partially purified from platelets (Type III and V) or neutrophils (Type IV) collected from rats. Each enzyme source was homogenized in a buffer (pH 6.5) containing 20 mM bisTris, 2 mM EDTA (i.e., ethylenediamine tetraacetate), 0.1 mM PMSF (i.e., phenylmethylsulfonyl fluoride), 5 mM 2-mercaptoethanol, 0.001 mM pepstatin and 0.01 mM leupeptin and was centrifuged at 30000×G for 30 minutes to obtain a supernatant, which was applied to an ion exchange column (Q-sepharose First Flow, Pharmacia Corp.) and was eluted with 0 to 1M sodium acetate. Partially purified isozymes were identified by observing the effects by conventional inhibitors.
Each PDE isozyme and the test compound dissolved in DMSO (i.e., dimethyl sulfoxide) were added to 50 mM Tris-HCl buffer containing 5 mM magnesium chloride. ^3 H-cAMP (for type III and IV PDE) or ^3 H-cGMP (for type I and V PDE) were added as substrates and were reacted at 30° C. for 30 minutes. The reaction was terminated by placing the test tube in boiling water of 100° C. for 5 minutes. The nucleotides formed by PDE were broken down by 5'-nucleotidase to ^3 H-adenosine or 3H-guanosine. The unreacted substrate and reaction product were separated through an ion-exchange column (i.e., QAE sephadex, Pharmacia Corp.) The eluted ^3 H-nucleoside was measured for its radioactivity by a liquid scintillation counter. The inhibitory activities of the compound of the present invention are shown by the IC50 value (M). Further, the inhibitory activities of the test samples against Type I, III, and V are 1/10 or less than that against type IV.

[2] = test system: antigen-induced bronchospasms; experiment: Inhibitory effect on Antigen-Induced Bronchospasm (Anti-Asthmatic action); type: in vivo; settings: Cavia porcellus; Hartley male guinea pig sensitized with Ovalbumin; intravenous, 10 minutes before 0.2 mg/kg OA i.v.; Konzett-Roessler method; read-out: Action for suppressing antigen-induced bronchospasms ED50
Procedure: Inhibitory effect on Antigen-Induced Bronchospasm (Anti-Asthmatic action)
A Hartley male guinea pig was sensitized by intramuscular administration of 35 mg Ovalbumin (OA) on first day and fourth day. A tracheal canula was introduced in the guinea pig anesthetized with pentobarbital and artificial ventilation was performed 25 to 29 days after the first sensitization. The overflow of the ventilation was measured by the Konzett-Roessler method while 0.2 mg/kg OA were administered intravenously. The test compound was dissolved in polyethylene glycol 400 and intravenously administered 10 minutes before administration of the antigens.

| pIC50 [1] | SMILES | ED50 [2] [mg/kg] |
| --- | --- | --- |
| 6.24 | COc1ccc(C2CN(C)C(=O)CO2)cc1OCCOCc1ccccc1 (centres unmarked) [Compound No. 46, 2-[4-methoxy-3-(2-benzyloxyethoxy)phenyl]-4-methylmorpholin-5-one] |  |
| 6.51 | COc1ccc(C2CN(C)C(=O)CO2)cc1OC1CCCC1 (centres unmarked) [Compound No. 14, 2-(3-cyclopentyloxy-4-methoxyphenyl)-4-methylmorpholin-5-one] | 2.1 |
| 5.62 | COc1ccc(C2(c3ccccc3)CN(Cc3ccncc3)C(=O)CO2)cc1OC1CCCC1 (centres unmarked) [Compound No. 23, 2-(3-cyclopentyloxy-4-methoxyphenyl)-2-phenyl-4-(4-pyridylmethyl)morpholin-5-one] |  |
| 5.77 | COc1ccc(C2CNC(=O)CO2)cc1OCCc1ccc(F)cc1 (centres unmarked) [Compound No. 32, 2-[3-[2-(4-fluorophenyl)ethoxy]-4-methoxyphenyl]morpholin-5-one] |  |
| 6.21 | COc1ccc(C2CNC(=O)CO2)cc1OCCCCCc1ccccc1 (centres unmarked) [Compound No. 26, 2-[4-methoxy-3-(5-phenylpentyloxy)phenyl]morpholin-5-one] |  |
| 7.52 | COc1ccc(C2(c3ccccc3)CNC(=O)CO2)cc1OC1Cc2ccccc2C1 (centres unmarked) [Compound No. 24, 2-[3-(2-indanyloxy)-4-methoxyphenyl]-2-phenylmorpholin-5-one] |  |
| 4.96 | COc1ccc(C2CNC(=O)CO2)cc1OC1CCCCC1 (centres unmarked) [Compound No. 7, 2-(3-cyclohexyloxy-4-methoxyphenyl)morpholin-5-one] |  |
| 6.15 | CCN1CC(c2ccc(OC)c(OC3CCCC3)c2)OCC1=O (centres unmarked) [Compound No. 17, 2-(3-cyclopentyloxy-4-methoxyphenyl)-4-ethylmorpholin-5-one] |  |
| 5.10 | CCOC(=O)CN1CC(c2ccc(OC)c(OC3CCCC3)c2)OCC1=O (centres unmarked) [Compound No. 15, 2-(3-cyclopentyloxy-4-methoxyphenyl)-4-ethoxycarbonylmethylmorpholin-5-one] |  |
| 5.55 | COc1ccc(C2CN(C)C(=O)CO2)cc1OCC1CC1 (centres unmarked) [Compound No. 52, 2-(3-cyclopropylmethoxy-4-methoxyphenyl)-4-methylmorpholin-5-one] |  |
| 5.33 | COc1ccc(C2CN(C)C(=O)CO2)cc1OC (centres unmarked) [Compound No. 12, 2-(3.4-dimethoxyphenyl)-4-methylmorpholin-5-one] |  |
| 6.49 | COc1ccc(C2CNC(=O)CO2)cc1OC1Cc2ccccc2C1 (centres unmarked) [Compound No. 6, 2-[3-(2-indanyloxy)-4-methoxyphenyl]morpholin-5-one] |  |
| 5.24 | COc1ccc(C2CNC(=O)CO2)cc1OCCOCc1ccccc1 (centres unmarked) [Compound No. 30, 2-[3-[2-(benzyloxy)ethoxy]-4-methoxyphenyl]morpholin-5-one] |  |
| 6.42 | COc1ccc(C2CN(C)C(=O)CO2)cc1OCCc1ccc(F)cc1 (centres unmarked) [Compound No. 41, 2-[3-[2-(4-fluorophenyl)ethoxy]-4-methoxyphenyl]-4-methylmorpholin-5-one] |  |
| 5.23 | CCCCN1CC(c2ccc(OC)c(OC3CCCC3)c2)OCC1=O (centres unmarked) [Compound No. 19, 4-butyl-2-(3-cyclopentyloxy-4-methoxyphenyl)morpholin-5-one] |  |
| 6.24 | COc1ccc(C2CN(C)C(=O)CO2)cc1O[C@H]1CC[C@H](c2ccccc2)CC1 (relative stereo) [Compound No. 45, 2-[4-methoxy-3-(trans-4-phenylcyclohexyloxy)phenyl]-4-methylmorpholin-5-one] |  |
| 6.32 | COc1ccc(C2CN(C)C(=O)CO2)cc1OCCCCCc1ccccc1 (centres unmarked) [Compound No. 29, 2-[4-methoxy-3-(5-phenylpentyloxy)phenyl]-4-methylmorpholin-5-one] |  |
| 7.36 | COc1ccc(C2CN(C)C(=O)CO2)cc1OC1Cc2ccccc2C1 (centres unmarked) [Compound No. 21, 2-[3-(2-indanyloxy)-4-methoxyphenyl]-4-methylmorpholin-5-one] |  |
| 6.35 | COc1ccc(C2CN(Cc3ccc4ccccc4n3)C(=O)CO2)cc1OC1CCCC1 (centres unmarked) [Compound No. 18, 2-(3-cyclopentyloxy-4-methoxyphenyl)-4-(2-quinolylmethyl)morpholin-5-one] |  |
| 5.26 | COc1ccc(C2CN(Cc3ccncc3)C(=O)CO2)cc1OC1CCCC1 (centres unmarked) [Compound No. 16, 2-(3-cyclopentyloxy-4-methoxyphenyl)-4-(4-pyridylmethyl)morpholin-5-one] |  |

| pIC50 [1] | SMILES | ED50 [2] [mg/kg] |
| --- | --- | --- |
| 6.60 | COc1ccc(C2(c3ccccc3)CN(C)C(=O)CO2)cc1OC1CCCC1 (centres unmarked) [Compound No. 22, 2-(3-cyclopentyloxy-4-methoxyphenyl)-4-methyl-2-phenylmorpholin-5-one] |  |
| 5.72 | COc1ccc(C2CNC(=O)CO2)cc1OCC1(c2ccccc2)CC1 (centres unmarked) [Compound No. 34, 2-[4-methoxy-3-[(1-phenylcyclopropyl)methoxy]phenyl]morpholin-5-one] |  |
| 6.51 | COc1ccc(C2CN(C)C(=O)CO2)cc1OCC1(c2ccccc2)CC1 (centres unmarked) [Compound No. 42, 2-[3-[(1-phenylcyclopropyl)methoxy]-4-methoxyphenyl]-4-methylmorpholin-5-one] |  |
| 5.52 | COc1ccc(C2(C)CNC(=O)CO2)cc1OC1CCCC1 (centres unmarked) [Compound No. 10, 2-(3-cyclopentyloxy-4-methoxyphenyl)-2-methylmorpholin-5-one] |  |
| 5.70 | COc1ccc(C2CN(C(C)=O)C(=O)CO2)cc1OC1CCCC1 (centres unmarked) [Compound No. 20, 4-acetyl-2-(3-cyclopentyloxy-4-methoxyphenyl)morpholin-5-one] |  |
| 7.52 | COc1ccc(C2(C)CN(C)C(=O)CO2)cc1OC1Cc2ccccc2C1 (centres unmarked) [Compound No. 28, 2.4-dimethyl-2-[3-(2-indanyloxy)-4-methoxyphenyl]morpholin-5-one] |  |
| 6.11 | COc1ccc(C2CN(C)C(=O)CO2)cc1OCC1CCCC1 (centres unmarked) [Compound No. 44, 2-(3-cyclopentylmethoxy-4-methoxyphenyl)-4-methylmorpholin-5-one] |  |
| 6.42 | COc1ccc(C2CN(C)C(=O)CO2)cc1OCC1CCC1 (centres unmarked) [Compound No. 48, 2-(3-cyclobutylmethoxy-4-methoxyphenyl)-4-methylmorpholin-5-one] |  |
| 5.57 | COc1ccc(C2CNC(=O)CO2)cc1OCCc1cccc2ccccc12 (centres unmarked) [Compound No. 37, 2-[4-methoxy-3-[2-(1-naphthyl)ethoxy]phenyl]morpholin-5-one] |  |
| 4.55 | COc1ccc(C2CNC(=O)CO2)cc1OCc1ccccc1 (centres unmarked) [Compound No. 3, 2-(3-benzyloxy-4-methoxyphenyl)morpholin-5-one] |  |
| 6.52 | COc1ccc(C2CN(C)C(=O)CO2)cc1OCCc1cccc2ccccc12 (centres unmarked) [Compound No. 47] |  |
| 6.46 | COc1ccc(C2CN(C)C(=O)CO2)cc1OCC(C)C (centres unmarked) [Compound No. 49, 2-[3-(2-methylpropoxy)-4-methoxyphenyl]-4-methylmorpholin-5-one] |  |
| 6.96 | COc1ccc(C2(c3ccccc3)CN(C)C(=O)CO2)cc1OC1Cc2ccccc2C1 (centres unmarked) [Compound No. 25, 2-[3-(2-indanyloxy)-4-methoxyphenyl]-4-methyl-2-phenylmorpholin-5-one] |  |
| 7.13 | COc1ccc(C2(c3ccccc3)CNC(=O)CO2)cc1OC1CCCC1 (centres unmarked) [Compound No. 11, 2-(3-cyclopentyloxy-4-methoxyphenyl)-2-phenylmorpholin-5-one] |  |
| 7.03 | CCN1CC(c2ccc(OC)c(OC3Cc4ccccc4C3)c2)OCC1=O (centres unmarked) [Compound No. 40, 4-ethyl-2-[3-(2-indanyloxy)-4-methoxyphenyl]morpholin-5-one] |  |
| 5.42 | COc1ccc(C2CNC(=O)CO2)cc1OCCC1Cc2ccccc2C1 (centres unmarked) [Compound No. 50, 2-[3-[2-(2-indanyl)ethoxy]-4-methoxyphenyl]morpholin-5-one] |  |
| 5.57 | COc1ccc(C2CNC(=O)CO2)cc1OCCc1ccccc1 (centres unmarked) [Compound No. 4, 2-(4-methoxy-3-phenethyloxyphenyl)morpholin-5-one] |  |
| 7.00 | COc1ccc(C2CN(C)C(=O)CO2)cc1OCCC1Cc2ccccc2C1 (centres unmarked) [Compound No. 51, 2-[3-[2-(2-indanyl)ethoxy]-4-methoxvphenyl]-4-methylmorpholin-5-one] |  |
| 6.21 | COc1ccc(C2CN(C)C(=O)CO2)cc1OCC1(C)CC1 (centres unmarked) [Compound No. 43] |  |
| 5.14 | COc1ccc(C2CNC(=O)CO2)cc1O[C@H]1CC[C@H](c2ccccc2)CC1 (relative stereo) [Compound No. 33, 2-[4-methoxy-3-(trans-4-phenylcyclohexyloxy)phenyl]morpholin-5-one] |  |
